Data: patent US7432276B2, “ABCA1 elevating compounds” (CV Therapeutics, Inc., priority 2005, dated 2008)

System: ABCA1 mRNA
Assay: ABCA1 mRNA induction in THP-1 cells, QuantiGene branched DNA assay
Type: cell-based
Details: 10 μM test compound, 18-20 hours; for fold induction at 10 µM: Homo sapiens, read-out: ABCA1 Induction Fold Increase over DMSO Vehicle
Outline: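 THP-1 cells, grown to subconfluence, treated with compounds at 10 and 3 μM in DMEM/BSA for 18–20 h. Lysates hybridized with ABCA1-specific probe 16–18 h at 53 °C; QuantiGene branched DNA luminescence gives fold increase over DMSO.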

Compound	ABCA1 Induction Fold Increase over DMSO Vehicle [FOLD INCREASE]	fold induction at 10 µM
COc1cccc2c1[C@H]1Nc3ccc(-n4cc(C(=O)N5CCS(=O)(=O)CC5)cn4)cc3C(C)(C)[C@H]1CO2 [Number 138, 1-((6aR,12aS)-6a,7,12,12a-tetrahydro-1-methoxy-7,7-dimethyl-6H-chromeno[4,3-b]quinolin-9-yl)1-1H-pyrazole-4-((1,1-dione-1,4-thiazaperhydroin-yl)methanone)]	7.4	–
COc1cccc2c1OCC1C2Nc2ccc(C(O)(C(F)(F)F)C(F)(F)F)cc2C1(C)C (stereo not shown) [Number 33, 1,1,1,3,3,3-hexafluoro-2-(4-methoxy-7,7-dimethyl(7,12,12a,6a-tetrahydrochromano[4,3-b]quinolin-9-yl))propan-2-ol]	6.4	–
COc1cccc2c1OCC1C2Nc2ccc(C(N)=O)cc2C1(C)C (stereo not shown) [Number 23, 4-methoxy-7,7-dimethyl-7,12,12a,6a-tetrahydrochromano[4,3-b]quinoline-9-carboxamide]	6.1	–
COC(=O)/C=C/c1ccc2c(c1)C1Nc3ccc(C(O)(C(F)(F)F)C(F)(F)F)cc3C(C)(C)C1CO2 (stereo not shown) [Number 35, methyl (2E)-3-{7,7-dimethyl-9-[2,2,2-trifluoro-1-hydroxy-1-(trifluoromethyl)ethyl](7,12,12a,6a-tetrahydrochromano[4,3-b]quinolin-2-yl)}prop-2-enoate]	4.3	–
methylethyl 3-(4-methoxy-7,7-dimethyl-7,12-dihydro-6H-chromeno[4,3-b]quinolin-9-yl)benzoate [Number 61]	2.0	–
COc1cccc2c1C1Nc3ccc(-c4nncn4C)cc3C(C)(C)C1CO2 (stereo not shown) [Number 74, 1-methoxy-7,7-dimethyl-9-(4-methyl(1,2,4-triazol-3-yl))-7,12,12a,6a-tetrahydrochromano[4,3-b]quinoline]	7.9	–
CCOc1cccc2c1OCC1C2Nc2ccc(C(F)(F)F)cc2C1(C)C (stereo not shown) [Number 41, 4-ethoxy-7,7-dimethyl-9-(trifluoromethyl)-7,12,12a,6a-tetrahydrochromano[4,3-b]quinoline]	2.1	–
CN(C)C(=O)/C=C/c1ccc2c(c1)C1Nc3ccc(C(O)(C(F)(F)F)C(F)(F)F)cc3C(C)(C)C1CO2 (stereo not shown) [Number 36, (2E)-3-{7,7-dimethyl-9-[2,2,2-trifluoro-1-hydroxy-1-(trifluoromethyl)ethyl](7,12,12a,6a-tetrahydrochromano[4,3-b]quinolin-2-yl)}-N,N-dimethylprop-2-enamide]	–	5.3
COc1cc(Cl)cc2c1OCC1C2Nc2ccc(NS(=O)(=O)c3ccc(C)cc3)cc2C1(C)C (stereo not shown) [Number 105, (2-chloro-4-methoxy-7,7-dimethyl(7,12,12a,6a-tetrahydrochromano[4,3-b]quinolin-9-yl))[(4-methylphenyl)sulfonyl]amine]	3.6	–
COc1cc(Br)cc2c1OC[C@@H]1[C@@H]2Nc2ccc(-c3cnco3)cc2C1(C)C [Number 150, (6aS,12aS)-2-bromo-6a,7,12,12a-tetrahydro-4-methoxy-7,7-dimethyl-9-(oxazol-5-yl)-6H-chromeno[4,3-b]quinoline]	–	12.5
C#Cc1ccc2c(c1)C(C)(C)[C@H]1COc3cccc(OC)c3[C@H]1N2 [Number 95, (12aS,6aR)-9-ethynyl-1-methoxy-7,7-dimethyl-7,12,12a,6a-tetrahydrochromano[4,3-b]quinoline]	4.3	–
COc1ccc2c(c1)C1Nc3ccc(C(O)(C(F)(F)F)C(F)(F)F)cc3C(C)(C)C1CO2 (stereo not shown) [Number 7, 1,1,1,3,3,3-hexafluoro-2-(2-methoxy-7,7-dimethyl(7,12,12a,6a-tetrahydrochromano[4,3-b]quinolin-9-yl))propan-2-ol]	–	3.1
COc1cccc2c1[C@H]1Nc3ccc(F)cc3C(C)(C)[C@H]1CO2 [Number 55, (12aS,6aR)-9-fluoro-1-methoxy-7,7-dimethyl-7,12,12a,6a-tetrahydrochromano[4,3-b]quinoline]	2.5	–
COc1cccc2c1OCC1C2Nc2ccc(-c3nnn[nH]3)cc2C1(C)C (stereo not shown) [Number 19, 4-methoxy-7,7-dimethyl-9-(1,2,3,4-tetraazol-5-yl)-7,12,12a,6a-tetrahydrochromano[4,3-b]quinoline]	5.6	–
CCOc1cccc2c1OCC1C2Nc2ccc(C(N)=O)cc2C1(C)C (stereo not shown) [Number 30, 4-ethoxy-7,7-dimethyl-7,12,12a,6a-tetrahydrochromano[4,3-b]quinoline-9-carboxamide]	5.3	–
COc1cccc2c1[C@H]1Nc3ccc(-c4csc(C)n4)cc3C(C)(C)[C@H]1CO2 [Number 110, (12aS,6aR)-1-methoxy-7,7-dimethyl-9-(2-methyl(1,3-thiazol-4-yl))-7,12,12a,6a-tetrahydrochromano[4,3-b]quinoline]	6.0	–
COc1cccc2c1OCC1C2Nc2ccc(C(N)=S)cc2C1(C)C (stereo not shown) [Number 58, amino(4-methoxy-7,7-dimethyl(7,12,12a,6a-tetrahydrochromano[4,3-b]quinolin-9-yl))methane-1-thione]	6.2	–
CCOP(=O)(Cc1ccc2c(c1)C(C)(C)[C@H]1COc3c(OC)cc(-c4cn[nH]c4)cc3[C@H]1N2)OCC [Number 181, diethyl((6aR,12aS)-6a,7,12,12a-tetrahydro-4-methoxy-7,7-dimethyl-2-(1H-pyrazol-4-yl)-6H-chromeno[4,3-b]quinolin-9-yl)methylphosphonate]	–	4.9
COC(=O)c1cccc(-c2ccc3c(c2)C(C)(C)[C@H]2COc4cccc(OC)c4[C@H]2N3)c1 [Number 113, methyl 3-((12aS,6aR)-1-methoxy-7,7-dimethyl-7,12,12a,6a-tetrahydrochromano[4,3-b]quinolin-9-yl)benzoate]	1.5	–
